Test results reported in patent US12157882B2, “Lactobacillus plantarum strain ATG-K2, ATG-K6 or ATG-K8, and composition for preventing or treating vaginitis comprising same” (ATOGEN CO., LTD, priority 2018, dated 2024).

Columns and labels:
[1] = Heat resistance: viable cell count while bathing at 70° C. in a water bath; format: physicochemical
Protocol: In order to investigate the heat resistance of lactic-acid bacteria of the present disclosure, samples were obtained at 20 sec, 40 sec, 60 sec, and 80 sec while bathing at 70° C. in a water bath, a viable cell count was taken to thus determine resistance to heat, and the results thereof are shown in Table 2 below and in FIG. 2. In Table 2 and in FIG. 2, a viable cell count is represented as a Log10 CFU/ml value, and the number in parentheses represents the viability (%) compared to the initial count. Each result value is the average of three independent experiments.

[2] = tested on: Gardnerella vaginalis KCTC5096 (GV); experiment: Coaggregation of lactic-acid bacteria on vaginitis pathogen; format: cell-based; details: time given only for CA (8 hr)
Protocol: (§1) Briefly, lactic-acid bacteria and vaginitis pathogens were centrifuged at 13,000 rpm for 5 min and the supernatant was decanted, after which the precipitated microorganism cells were washed using 1×PBS. After washing was repeated twice, the microorganisms were each suspended using 1×PBS until an absorbance OD600 of 1.0 was obtained. The lactic-acid bacteria suspension and the vaginitis pathogens were mixed at the same volume ratio, homogenized through vortexing, and allowed to stand, after which the supernatant of the mixed solution was carefully obtained at 1, 4, and 8 hr, and the absorbance thereof was measured. The suspension without mixing the microorganisms was used as a control. Based on the measured absorbance, coaggregation was calculated using the following equation. Here, ODpatho represents the absorbance of the vaginitis pathogen, ODLAB represents the absorbance of the lactic-acid bacteria, and ODmix represents the absorbance of the mixed solution of microorganisms. Coaggregation (%)={(ODpatho+ODLAB)/2−ODmix}/(ODpatho+ODLAB)/2

[3] = tested on: Candida albicans KCTC7678 (CA); experiment: as above; format: cell-based; details: at 8 hr
Protocol: as §1

[4] = tested on: Gardnerella vaginalis KCTC5096 (GV); experiment: Growth inhibition by cell-free culture supernatant (CFCS); format: cell-based; details: CFCS at 1× concentration, culture for 48 hr, OD600
Protocol: (§2) In order to measure the activity of the lactic-acid bacteria culture solution on inhibiting the growth of vaginitis pathogens, a 10-fold-concentrated cell-free culture supernatant (CFCS) was prepared. The culture solution of each of K2, K6 and K8 lactic-acid bacteria was centrifuged at 4,000 rpm for 25 min, thereby separating the cells of the lactic-acid bacteria and the culture supernatant from each other. The culture supernatant was filtered using a 0.2 μm pore syringe filter (Sartorius, Germany). The filtered culture supernatant was lyophilized and suspended in 1×PBS to afford a solution concentrated 10-fold compared to the volume of the initial culture solution. CA was inoculated at a concentration of 1×10^5 CFU/ml and GV was inoculated at a concentration of 1×10^6 CFU/ml under individual culture conditions. The CFCS of lactic-acid bacteria was added in a volume corresponding to 0.1 times the final volume to the vaginitis-pathogen-inoculated solution so as to reach 1×, and the test group not added with CFCS was used as a control. The mixed composition was cultured for 24 hr for CA and 48 hr for GV under individual vaginitis-pathogen culture conditions, and the absorbance was measured at a wavelength of OD600. Based on the measured absorbance, growth inhibition was determined using the following cytotoxicity calculation equation. In this equation, ODcontrol represents the absorbance of the control, and ODcfcs represents the absorbance of the CFCS-added group. Growth inhibition (%)=(ODcontrol−ODcfcs)/ODcontrol×100

[5] = tested on: Candida albicans KCTC7678 (CA); experiment: as above; format: cell-based; details: CFCS at 1× concentration, culture for 24 hr, OD600
Protocol: as §2

[6] = ABTS radical-scavenging experiment with lactic-acid bacteria lysate; format: biochemical; details: for ABTS radical-scavenging activity: lactic-acid bacteria lysate, dark reaction 10 min, 734 nm; for antioxidant activity, ranking among strains: lysate, at 10 mg and above
Protocol: In order to evaluate the antioxidant activity of each of the lactic-acid bacteria strains, a radical-scavenging experiment was conducted using 2,2′-azino-bis(3-ethylbenzthiazoline-6-sulfonic acid) (ABTS, Sigma-Aldrich, Germany). Briefly, lactic-acid bacteria were cultured for about 24 hr, allowed to react with lysozyme (Sigma-Aldrich, Germany) for 2 hr at 37° C., and lysed through sonication to obtain each lactic-acid bacteria lysate. The solid content thereof was measured using a water content analyzer, and a stock solution was adjusted to a concentration of 50 mg/ml. To prepare ABTS, 14 mM ABTS stock solution and 4.9 mM potassium persulfate were mixed at a volume ratio of 1:1, followed by dark reaction overnight so that the resulting mixture turned blue-green. A working solution obtained by diluting the corresponding solution until an absorbance OD-734 reached about 0.7 was added with 10% of each lactic-acid bacteria lysate sample, followed by dark reaction for 10 min, after which the absorbance at a wavelength of 734 nm was measured, and each measured value was substituted into the following equation. ABTS radical-scavenging activity (%)={1−(ODsample/ODcontrol)}×100

[7] = Bile salt hydrolase (BSH) activity on MRS agar with 0.5% sodium taurocholic acid; details: MRS agar with 0.5% (w/v) TDCA, anaerobic, 37° C., about 72 hr
Protocol: In order to confirm the presence or absence of bile salt hydrolase (BSH) activity as the function of each of the lactic-acid bacteria, an experiment was performed in accordance with the method described in Dashkevicz and Feighner (1989). Briefly, an agar medium was prepared by adding 0.5% (w/v) sodium taurocholic acid (TDCA, Sigma-Aldrich, Germany) to MRS.

sheep blood = format: cell-based
Protocol: In order to evaluate the presence or absence of hemolysis of lactic-acid bacteria in relation to safety of probiotics, K2, K6 and K8 strains were inoculated into a tryptic soybean agar (TSA, Difco Laboratories, USA) containing 5% sheep blood, and were then cultured at 37° C. for about 24 to 48 hr.

[8] = Initial, average of three independent experiments

Row | Substance | viability compared to the initial count ([1]; 70° C. water bath, 20 sec) | viable cell count ([1]; 70° C. water bath, 20 sec) [Log10 CFU/ml] | viability compared to the initial count ([1]; 70° C. water bath, 40 sec) | viable cell count ([1]; 70° C. water bath, 40 sec) [Log10 CFU/ml] | viability compared to the initial count ([1]; 70° C. water bath, 60 sec) | viable cell count ([1]; 70° C. water bath, 60 sec) [Log10 CFU/ml] | viability compared to the initial count ([1]; 70° C. water bath, 60 sec, listed as K6) [%] | viability compared to the initial count ([1]; Initial) | viable cell count [1, 8] [Log10 CFU/ml] | coaggregation with GV [2] [%] | coaggregation with CA [3] [%] | growth inhibition of GV [4] [%] | growth inhibition of CA [5] [%] | ABTS radical-scavenging activity [6] | antioxidant activity, ranking among strains [6] | bile salt hydrolase (BSH) activity [7] | hemolysis and clear zones (sheep blood) | viability compared to the initial count ([1]; 70° C. water bath, 60 sec, listed as K2) [%] | viability compared to the initial count ([1]; 70° C. water bath, 60 sec, listed as K8) [%]
1 | Lactobacillus plantarum ATG-K6 [Lb. plantarum ATG-K6] | (97.27% | 9.43 | (87.46% | 9.38 | (68.88% | 9.28 | 68.88 | (100.00% | 9.44 | 30.39 | 58.57 | 28.25 | 82.11 | exhibited radical-scavenging activity | greatest effect | exhibited BSH activity | not observed | – | –
2 | Lactobacillus plantarum ATG-K2 [Lb. plantarum ATG-K2] | (109.65% | 8.99 | (91.33% | 8.92 | (70.95% | 8.80 | – | (100.00% | 8.95 | 32.72 | 70.73 | 37.49 | 87.05 | exhibited radical-scavenging activity | – | exhibited BSH activity | not observed | 70.95 | –
3 | Lactobacillus plantarum ATG-K8 [Lb. plantarum ATG-K8] | (89.67% | 9.49 | (75.26% | 9.41 | (74.32% | 9.41 | – | (100.00% | 9.55 | 20.45 | 57.88 | 44.60 | 81.34 | exhibited radical-scavenging activity | next-greatest antioxidant activity | exhibited BSH activity | not observed | – | 74.32
